In publication PMC7576608, “Mechanisms of telomerase inhibition by oxidized and therapeutic dNTPs” (Nature Communications, 2020):

Tests used:
[1] = test system: telomerase; assay: Direct telomerase assay in the absence or presence of POT1-TPP1 (processivity R1/2); type: biochemical, human; conditions: analog substituted for its natural dNTP
Text: Next we tested whether the telomerase processivity factor POT1–TPP1 modulates modified dNTP inhibition of telomerase. POT1 binds to the telomeric ssDNA overhang, requiring the minimum sequence of 5′-[…]-3′[38]. Inclusion of POT1-binding partner TPP1, increases the binding affinity for telomeric DNA ten-fold compared to POT1 alone. POT1–TPP1 recruits telomerase to telomeres in vivo[39], and greatly increases telomerase repeat processivity. Therefore, we reasoned that POT1–TPP1 may overcome inhibition by the modified dNTPs and enhance telomerase processivity. We conducted telomerase extension reactions with radiolabeled primer in the presence of POT1–TPP1, and used a primer with a single mutation ([…]; underlined G to C mutation)[40] to ensure POT1–TPP1 is positioned at the 5′ portion of the primer (Fig. 5). This provides a homogenous substrate for telomerase extension.
For these reactions, we replaced the natural dNTP with the modified dNTP analog, while the other dNTPs remained at cellular relevant concentrations.
Direct telomerase assays were conducted in the absence or presence of 500 nM POT1 and 500 nM TPP1, as indicated, and 5 nM ^32P-end labeled primer ([…]) designed to position POT1 at the 10 nt primer 5′ end. Reactions contained cellular-concentration dNTPs (lanes 1 and 2), except when the natural dNTP was substituted with the oxidized dNTP a or therapeutic dNTP b analog (lanes 3–8), as indicated. […] Letters on the right indicate template base; P indicates unextended 18-mer primer. c Processivity was calculated on the basis of total products normalized to loading control. Images are representative of, and data are shown as mean ± s.d. from 3 to 5 independent experiments. Source data are provided as a Source Data file.
The reactions were started by the addition of 3 μl of immunopurified telomerase eluent, incubated at 37 °C for 1 h, then terminated with 2 μl of […] and heat inactivated at 65 °C for 20 min. An equal volume of loading buffer (94% formamide, 0.1× TBE, 0.1% bromophenol blue, 0.1% xylene cyanol) was added to the reaction eluent. The samples were heat denatured for 10 min at 100 °C and loaded onto a 14% denaturing acrylamide gel (7 M urea, 1× TBE) and electrophoresed for 90 min at constant 38 W. Samples were imaged using a Typhoon phosphorimager (GE Healthcare). Percent primer extension was calculated with ImageQuant TL 8.2 by measuring the intensity of each product band and dividing by the total radioactivity in the lane or total products, as indicated in the figure legends.
The processivity was calculated as described[40],[67]. Repeat processivity from the direct telomerase extension assays was calculated as R1/2 (equivalent to the half-time for decay in an exponential time course), which represents the median length of DNA product formed, expressed in terms of number of telomere repeats. First, the total volume counts for each product band extend by one or more telomere repeats were obtained using Image Quant TL. The volume counts were then normalized by dividing by the number of radiolabeled guanosines incorporated into the extended products based on the number of repeats added, termed corrected volume (corr vol). The “percent left behind” (%LB) was calculated for each product band by summing the counts for that product band and for every product band below (shorter products), divided by the total counts for the lane, and then multiplied by 100. The natural log of (100−%LB) was calculated and then plotted vs. repeat number for each product length. A linear regression line was fit to the data to determine the slope of the line.

[2] = molecular target: telomerase (Homo sapiens, UniProt O14746); assay: Telomerase extension of 32P-end labeled primers with a single dNTP (percent primer extension); type: biochemical; set-up: made in house; anti-FLAG immunopurification, eluted with 3xFLAG peptide; conditions: for Percent Primer Extension: 50 μM single dNTP
telomerase (Homo sapiens, UniProt O14746), sequence (O14746 whole entry): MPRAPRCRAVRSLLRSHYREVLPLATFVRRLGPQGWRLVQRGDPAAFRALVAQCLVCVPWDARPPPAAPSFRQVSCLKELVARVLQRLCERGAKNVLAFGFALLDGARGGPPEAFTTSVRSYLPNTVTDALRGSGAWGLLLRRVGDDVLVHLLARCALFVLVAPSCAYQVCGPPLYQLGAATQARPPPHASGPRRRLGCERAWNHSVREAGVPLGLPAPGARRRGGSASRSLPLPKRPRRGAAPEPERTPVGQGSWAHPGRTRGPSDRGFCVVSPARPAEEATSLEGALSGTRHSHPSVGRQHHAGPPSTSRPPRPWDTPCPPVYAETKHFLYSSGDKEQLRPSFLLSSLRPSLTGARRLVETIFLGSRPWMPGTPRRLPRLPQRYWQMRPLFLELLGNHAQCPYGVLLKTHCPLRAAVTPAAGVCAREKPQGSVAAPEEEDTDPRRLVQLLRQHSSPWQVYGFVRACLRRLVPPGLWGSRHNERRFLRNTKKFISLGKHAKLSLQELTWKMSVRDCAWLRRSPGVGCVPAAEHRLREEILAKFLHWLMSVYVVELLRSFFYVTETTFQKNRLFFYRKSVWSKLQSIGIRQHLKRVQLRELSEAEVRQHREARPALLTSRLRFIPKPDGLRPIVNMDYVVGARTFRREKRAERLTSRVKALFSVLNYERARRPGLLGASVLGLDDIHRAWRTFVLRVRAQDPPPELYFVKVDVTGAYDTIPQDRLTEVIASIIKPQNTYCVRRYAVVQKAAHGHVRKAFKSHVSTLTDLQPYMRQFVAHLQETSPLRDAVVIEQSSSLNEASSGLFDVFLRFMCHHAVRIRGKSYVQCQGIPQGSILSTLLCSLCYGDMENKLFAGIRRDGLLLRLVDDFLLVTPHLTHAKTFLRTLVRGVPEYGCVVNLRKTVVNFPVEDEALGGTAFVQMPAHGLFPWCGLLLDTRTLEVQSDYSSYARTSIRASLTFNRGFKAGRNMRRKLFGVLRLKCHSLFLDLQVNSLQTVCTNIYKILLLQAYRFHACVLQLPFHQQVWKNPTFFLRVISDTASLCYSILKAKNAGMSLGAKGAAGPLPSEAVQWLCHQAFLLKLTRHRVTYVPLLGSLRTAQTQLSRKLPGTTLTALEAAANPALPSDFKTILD
Experimental: A chain terminating mechanism of inhibition requires that the enzyme adds the modified dNTP to a growing chain, which then blocks further synthesis. […] To test whether telomerase can incorporate other modified dNTPs, and whether the incorporation is chain terminating and/or mutagenic, we conducted direct extension assays in which we radiolabeled the primer and added increasing concentrations (5, 50, and 500 μM) of a single dNTP (Supplementary Figs. 3, 5, 6, and 7). Since modified dNTPs may prefer mispairing, we tested various primers in which the first template base was either rA3, rC1, or rU5 (primer 1, primer 2, and primer 3, respectively), and compared the percent primer extension for each dNTP at the middle 50 μM concentration (Fig. 3). Primers 1 and 2 initiate synthesis at consecutive rA3rA4 or rC1rC2 template bases, respectively, so we could examine both incorporation and extension to the next base. However, the telomerase template lacks tandem rU residues.
Fig. 3 Telomerase insertion of modified dNTPs. Telomerase reactions were conducted with 5 nM ^32P-end labeled primer a Primer 1 (TTAGGG)3, b Primer 2 (GGTTAG)3, or c Primer 3 (AGGGTT)3. Reactions contained cellular-concentration dNTPs (lane 1) or 50 μM of indicated natural dNTP (blue, lanes 2–5), oxidized dNTP (red, lanes 6–8), or therapeutic dNTP (green, lanes 9–11). Products were separated on denaturing gels. […] Letters on the right indicate the template base; P indicates unextended 18-mer primer. Graphs represent the percent of total primers extended. Images are representative of, and data are shown as mean ± s.d. from, three independent experiments. Source data are provided as a Source Data file.
An equal volume of loading buffer (94% formamide, 0.1× TBE, 0.1% bromophenol blue, 0.1% xylene cyanol) was added to the reaction eluent. The samples were heat denatured for 10 min at 100 °C and loaded onto a 14% denaturing acrylamide gel (7 M urea, 1× TBE) and electrophoresed for 90 min at constant 38 W. Samples were imaged using a Typhoon phosphorimager (GE Healthcare). Percent primer extension was calculated with ImageQuant TL 8.2 by measuring the intensity of each product band and dividing by the total radioactivity in the lane or total products, as indicated in the figure legends.
Telomerase reactions were conducted with 5 nM 32P-end labeled primer (a) Primer 1 (TTAGGG)3, (b) Primer 2 (GGTTAG)3, or (c and d) Primer 3 […]
(d) reactions contained 3 µg/µl RNase A. Products were separated on denaturing gels. Letters on the right indicate the template base; P indicates unextended 18-mer primer. Graphs represent the percent of total primers extended for the reactions in panels a – c from one experiment. Panel d is a representative image from three independent experiments. Source data are provided as a Source Data file. […]
Supplementary Fig 4. Time course reactions with telomerase or pol β. (a, b) Telomerase reactions were conducted with 5 nM 32P-end labeled primer (a) Primer 4 (GTTAGG)3 or (b) Primer 2 (GGTTAG)3.
Products were separated on denaturing gels. Letters on the right indicate the template base; P indicates […]
unextended 18-mer primer. […]

[3] = Primer 1 (TTAGGG)3, first template base rA3, Mean of three experiments
[4] = Primer 2 (GGTTAG)3, first template base rC1, Mean of three experiments
[5] = Primer 2 (GGTTAG)3, first template base rC1, single experiments n1-n3
[6] = Primer 3 (AGGGTT)3, first template base rU5, Mean of three experiments
[7] = Primer 3 (AGGGTT)3, first template base rU5, single experiments n1-n3
[8] = end-labeled primers, single dNTP

| Compound | Effect of POT1-TPP1 on telomerase in presence of analog (in words) [1] | Percent Primer Extension [2, 3] [%] | % Primer Extension ([2]; Primer 1, 5µM dNTP) [%] | % Primer Extension ([2]; Primer 1, 50µM dNTP) [%] | % Primer Extension ([2]; Primer 1, 500µM dNTP) [%] | Percent Primer Extension [2, 4] [%] | Percent Primer Extension [2, 5] [%] | % Primer Extension ([2]; Primer 2, 5µM dNTP) [%] | % Primer Extension ([2]; Primer 2, 50µM dNTP) [%] | % Primer Extension ([2]; Primer 2, 500µM dNTP) [%] | Percent Primer Extension [2, 6] [%] | Percent Primer Extension [2, 7] [%] | % Primer Extension ([2]; Primer 3, 5µM dNTP) [%] | % Primer Extension ([2]; Primer 3, 50µM dNTP) [%] | % Primer Extension ([2]; Primer 3, 500µM dNTP) [%] | Quality as telomerase substrate (in words) [2, 8] | Chain termination after telomerase insertion (in words) [2, 8] |
| --- | --- | --- | --- | --- | --- | --- | --- | --- | --- | --- | --- | --- | --- | --- | --- | --- | --- |
| Nc1ncnc2c1[nH]c(=O)n2C1CC(O)C(COP(=O)(O)OP(=O)(O)OP(=O)(O)O)O1 (stereo not drawn) [8-oxo-dATP] | some POT1–TPP1 stimulation | 0.53 | 0.00 | 0.00 | 1.79 | 0.00 | 0.00 | 0.00 | 0.00 | 0.00 | 0.00 | 0.00 | 0.00 | 0.00 | 0.00 | very poor substrate for telomerase |  |
| Nc1nc2c([nH]c(=O)n2C2CC(O)C(COP(=O)(O)OP(=O)(O)OP(=O)(O)O)O2)c(=O)[nH]1 (stereo not drawn) [8-oxo-dGTP] | unable to overcome the chain termination | 10.80 | 5.20 | 7.44 | 8.42 | 0.96 |  | 0.88 | 1.37 | 6.18 | 0.00 | 0.00 | 0.00 | 0.00 | 0.00 |  | chain-terminating ability |
| Cc1cn([C@H]2C[C@H](N=[N+]=[N-])[C@@H](CO[P@](=O)(O)O[P@](=O)(O)OP(=O)(O)O)O2)c(=O)[nH]c1=O [AZT-TP] | failed to stimulate telomerase processivity |  |  |  |  | 0.00 | 0.00 |  |  |  | 0.00 | 0.00 |  |  |  |  | genuine telomerase chain terminators |
| O=c1[nH]cnc2c1ncn2C1CCC(COP(=O)(O)OP(=O)(O)OP(=O)(O)O)O1 (stereo not drawn) [ddITP] | failed to stimulate telomerase processivity | 1.59 | 3.46 | 4.29 | 6.73 |  |  | 0 | 4.27 | 5.45 | 0.00 | 0.00 | 0 | 0 | 0 |  | genuine telomerase chain terminators |
